From ChEMBL document CHEMBL4385641 (Bioorg Med Chem, 2019)

Experiments:
Cannabinoid receptor 1 [1] = target: T1, Cannabinoid receptor 1 (Homo sapiens, UniProt P21554); assay: Inverse agonist activity at human CB1 receptor expressed in CHOK1 cells co-expressing Galphaq16 assessed as apparent equilibrium constant after 90 secs by […]-4 AM dye-based FLIPR assay; type: cell-based
Homo sapiens = species on record: Homo sapiens; assay: Selectivity ratio of Ki for displacement of [3H]-CP55940 from human CB2 receptor expressed in CHO cell membranes to Ki for displacement of [3H]-CP55940 from human CB1 receptor expressed in CHO cell membranes
Cannabinoid receptor 1 [2] = target: T1, Cannabinoid receptor 1; assay: Displacement of [3H]-CP55940 from human CB1 receptor expressed in CHO cell membranes
Cannabinoid receptor 2 = Cannabinoid receptor 2 (Homo sapiens, UniProt P34972); assay: Displacement of [3H]-CP55940 from human CB2 receptor expressed in CHO cell membranes
Sequence of Cannabinoid receptor 2 (P34972 whole entry): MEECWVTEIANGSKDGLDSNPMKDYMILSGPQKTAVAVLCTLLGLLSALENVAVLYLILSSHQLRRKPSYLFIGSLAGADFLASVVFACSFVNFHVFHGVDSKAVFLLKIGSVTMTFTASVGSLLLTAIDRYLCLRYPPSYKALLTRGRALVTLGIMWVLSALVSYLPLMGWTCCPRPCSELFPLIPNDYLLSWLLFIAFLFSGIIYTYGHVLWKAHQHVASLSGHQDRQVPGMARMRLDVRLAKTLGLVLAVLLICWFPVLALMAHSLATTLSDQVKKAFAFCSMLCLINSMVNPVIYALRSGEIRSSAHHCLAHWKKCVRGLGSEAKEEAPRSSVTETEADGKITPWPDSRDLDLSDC

[3] = Permeability across apical to basolateral side in MDCK-MDR1 cells at 10 uM incubated for 1 hr by mass spectrometric method; type: ADME, cell-based, Canis lupus familiaris; conditions: dog, mdck-mdr1, 1 h
[4] = Half life in human liver microsomes at 1 uM by mass mass spectrometric method; type: ADME, Microsome; conditions: microsomes, 1 µM
[5] = Intrinsic clearance in human liver microsomes at 1 uM incubated for up to 120 mins by mass mass spectrometric method; type: ADME, Microsome; conditions: microsomes, 2 h, 1 µM

T1 sequence (P21554 whole entry): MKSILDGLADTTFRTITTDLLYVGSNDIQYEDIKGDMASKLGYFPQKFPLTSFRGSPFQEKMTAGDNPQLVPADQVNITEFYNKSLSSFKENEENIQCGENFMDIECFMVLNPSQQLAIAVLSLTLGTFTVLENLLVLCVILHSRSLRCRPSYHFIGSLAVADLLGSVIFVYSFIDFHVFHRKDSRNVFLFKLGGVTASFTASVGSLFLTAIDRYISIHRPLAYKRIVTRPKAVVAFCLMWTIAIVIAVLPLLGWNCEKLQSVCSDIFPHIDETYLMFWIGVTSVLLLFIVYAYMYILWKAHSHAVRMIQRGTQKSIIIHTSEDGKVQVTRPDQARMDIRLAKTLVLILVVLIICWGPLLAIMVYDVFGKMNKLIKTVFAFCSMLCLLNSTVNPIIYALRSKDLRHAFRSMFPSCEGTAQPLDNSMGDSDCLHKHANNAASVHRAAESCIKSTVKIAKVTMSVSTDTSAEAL

Compound | Ke(app) (Cannabinoid receptor 1 [1]) | Ratio Ki (Homo sapiens) | Ki (Cannabinoid receptor 1 [2]) | Ki (Cannabinoid receptor 2) | other results
O=C(NC1CCN(c2ncnc3c2nc(-c2ccccc2Cl)n3-c2ccc(Cl)cc2)CC1)C1CCOC1 (stereo not drawn) | 150 nM | – | – | – | –
CCCCCS(=O)(=O)NC1CCN(c2ncnc3c2nc(-c2ccccc2Cl)n3-c2ccc(Cl)cc2)CC1 | 29 nM | 63 | 9 nM | 570 nM | permeability [3]: < 0.1%
O=C(NC1CCN(c2ncnc3c2nc(-c2ccccc2Cl)n3-c2ccc(Cl)cc2)CC1)OC1CCOCC1 | 320 nM | – | – | – | –
Clc1ccc(-n2c(-c3ccccc3Cl)nc3c(N4CCC(Nc5ccncc5)CC4)ncnc32)cc1 | 100 nM | – | – | – | –
CN1CCC(COC(=O)NC2CCN(c3ncnc4c3nc(-c3ccccc3Cl)n4-c3ccc(Cl)cc3)CC2)CC1 | 1500 nM | – | – | – | –
O/N=C(\c1ccc(F)cc1)C1CCN(c2ncnc3c2nc(-c2ccccc2Cl)n3-c2ccc(Cl)cc2)CC1 (stereo in doubt; 21) [listing 1 of 2 here] | – | – | 7 nM | – | t1/2 [4]: 1.68 h; CLH [5]: 12 µL/min/mg; Ki (Cannabinoid receptor 2; cho): > 10000 nM
O=S(=O)(NC1CCN(c2ncnc3c2nc(-c2ccccc2Cl)n3-c2ccc(Cl)cc2)CC1)c1ccc(F)cc1F | 2 nM | > 5000 | – | > 10000 nM | permeability [3]: 0.1%
CC(C)(C)CC(=O)NC1CCN(c2ncnc3c2nc(-c2ccccc2Cl)n3-c2ccc(Cl)cc2)CC1 | 0.3 nM | 75 | 0.2 nM | 15 nM | –
O=C(NC1CCN(c2ncnc3c2nc(-c2ccccc2Cl)n3-c2ccc(Cl)cc2)CC1)OCc1ccccc1 | 3 nM | 180 | 4 nM | 710 nM | –
O=S(=O)(NC1CCN(c2ncnc3c2nc(-c2ccccc2Cl)n3-c2ccc(Cl)cc2)CC1)c1ccc(F)cc1 | 1.1 nM | > 2000 | 3.3 nM | 9000 nM | permeability [3]: 0.1%
O=S(=O)(NC1CCN(c2ncnc3c2nc(-c2ccccc2Cl)n3-c2ccc(F)cc2)CC1)c1ccccc1F | 21 nM | > 3000 | 2.6 nM | > 10000 nM | –
O=C(CC1CCOCC1)NC1CCN(c2ncnc3c2nc(-c2ccccc2Cl)n3-c2ccc(Cl)cc2)CC1 | 510 nM | – | – | – | –
O=S(=O)(CC1CCCCC1)NC1CCN(c2ncnc3c2nc(-c2ccccc2Cl)n3-c2ccc(Cl)cc2)CC1 | 31 nM | > 1100 | 9 nM | > 10000 nM | permeability [3]: < 0.1%
CC(C)(O)CC(=O)NC1CCN(c2ncnc3c2nc(-c2ccccc2Cl)n3-c2ccc(Cl)cc2)CC1 | 1700 nM | – | – | – | –
Cn1cc(-n2c(-c3ccccc3Cl)nc3c(N4CCC(NS(=O)(=O)c5ccc(F)c(F)c5)CC4)ncnc32)cn1 | 140 nM | – | – | – | –
CC(C)(C)OCCC(=O)NC1CCN(c2ncnc3c2nc(-c2ccccc2Cl)n3-c2ccc(Cl)cc2)CC1 | 1.7 nM | 820 | 6 nM | 4900 nM | permeability [3]: 20%
CCOCC(=O)NC1CCN(c2ncnc3c2nc(-c2ccccc2Cl)n3-c2ccc(Cl)cc2)CC1 | 240 nM | – | – | – | –
CC(=O)Nc1ccc(-n2c(-c3ccccc3Cl)nc3c(N4CCC(NS(=O)(=O)c5ccc(F)c(F)c5)CC4)ncnc32)cn1 | 2700 nM | – | – | – | –
O=C(CN1CCOCC1)NC1CCN(c2ncnc3c2nc(-c2ccccc2Cl)n3-c2ccc(Cl)cc2)CC1 | 1100 nM | – | – | – | –

Compound | Ke(app) (Cannabinoid receptor 1 [1]) | Ratio Ki (Homo sapiens) | Ki (Cannabinoid receptor 1 [2]) | Ki (Cannabinoid receptor 2) | other results
O=S(=O)(CCC(F)(F)F)NC1CCN(c2ncnc3c2nc(-c2ccccc2Cl)n3-c2ccc(Cl)cc2)CC1 | 12 nM | 105 | 4 nM | 420 nM | permeability [3]: 1%
Fc1ccc(CNC2CCN(c3ncnc4c3nc(-c3ccccc3Cl)n4-c3ccc(Cl)cc3)CC2)cc1 | 210 nM | – | – | – | –
CN(Cc1ccc(F)cc1)C1CCN(c2ncnc3c2nc(-c2ccccc2Cl)n3-c2ccc(Cl)cc2)CC1 | 460 nM | – | – | – | –
O=C(NC1CCN(c2ncnc3c2nc(-c2ccccc2Cl)n3-c2ccc(Cl)cc2)CC1)C1CCSCC1 | 26 nM | 630 | 3 nM | 1900 nM | –
Clc1ccc(-n2c(-c3ccccc3Cl)nc3c(N4CCC(Nc5ncccn5)CC4)ncnc32)cc1 | 43 nM | – | – | – | –
O=C(NC1CCN(c2ncnc3c2nc(-c2ccccc2Cl)n3-c2ccc(C(F)(F)F)nc2)CC1)c1ccccc1 | 19 nM | 92 | 8 nM | 740 nM | permeability [3]: 3%
O=S(=O)(NC1CCN(c2ncnc3c2nc(-c2ccccc2Cl)n3-c2ccc(C(F)(F)F)nc2)CC1)c1ccccc1F | 0.5 nM | 100 | 4 nM | 400 nM | –
O=C(NC1CCN(c2ncnc3c2nc(-c2ccccc2Cl)n3-c2ccc(Cl)cc2)CC1)c1ccc(F)c(F)c1 | 0.7 nM | 2000 | 3 nM | 5900 nM | permeability [3]: 0.2%
CN(Cc1ccccc1)C1CCN(c2ncnc3c2nc(-c2ccccc2Cl)n3-c2ccc(Cl)cc2)CC1 | 34 nM | 64 | – | 2700 nM | –
O=S(=O)(NC1CCN(c2ncnc3c2nc(-c2ccccc2Cl)n3-c2cc(C(F)(F)F)[nH]n2)CC1)c1ccc(F)c(F)c1 | 5000 nM | – | – | – | –
Cn1nnnc1CCC(=O)NC1CCN(c2ncnc3c2nc(-c2ccccc2Cl)n3-c2ccc(Cl)cc2)CC1 | > 10000 nM | – | – | – | –
Clc1ccc(-n2c(-c3ccccc3Cl)nc3c(N4CCC(NCc5ccccc5)CC4)ncnc32)cc1 | 150 nM | – | – | – | –
Clc1ccc(-n2c(-c3ccccc3Cl)nc3c(N4CCC(Nc5ccccc5)CC4)ncnc32)cc1 | 1.4 nM | > 1600 | 6 nM | > 10000 nM | permeability [3]: 0%
COCCC(=O)NC1CCN(c2ncnc3c2nc(-c2ccccc2Cl)n3-c2ccc(Cl)cc2)CC1 | 370 nM | – | – | – | –
O=S(=O)(NC1CCN(c2ncnc3c2nc(-c2ccccc2Cl)n3-c2ccc(OC(F)F)nc2)CC1)c1ccccc1F | 0.7 nM | 120 | 1.6 nM | 190 nM | –
O=C(CC1CCOC1)NC1CCN(c2ncnc3c2nc(-c2ccccc2Cl)n3-c2ccc(Cl)cc2)CC1 (stereo not drawn) | 1000 nM | – | – | – | –
O=C(NC1CCN(c2ncnc3c2nc(-c2ccccc2Cl)n3-c2ccc(Cl)cc2)CC1)c1ccc(F)cc1 | 1.1 nM | 5000 | 2 nM | 10000 nM | permeability [3]: 0.2%
O=C(NC1CCN(c2ncnc3c2nc(-c2ccccc2Cl)n3-c2ccc(Cl)cc2)CC1)OC1CCC1 | 1 nM | 1800 | 0.6 nM | 1050 nM | –
CCCCC(=O)NC1CCN(c2ncnc3c2nc(-c2ccccc2Cl)n3-c2ccc(C(F)(F)F)nc2)CC1 | 4 nM | 140 | 3 nM | 420 nM | permeability [3]: 28%

Compound | Ke(app) (Cannabinoid receptor 1 [1]) | Ratio Ki (Homo sapiens) | Ki (Cannabinoid receptor 1 [2]) | Ki (Cannabinoid receptor 2) | other results
NC(=O)c1ccc(-n2c(-c3ccccc3Cl)nc3c(N4CCC(NS(=O)(=O)c5ccc(F)c(F)c5)CC4)ncnc32)cc1 | 330 nM | – | – | – | –
Cn1ccc(-n2c(-c3ccccc3Cl)nc3c(N4CCC(NS(=O)(=O)c5ccc(F)c(F)c5)CC4)ncnc32)n1 | 120 nM | – | – | – | –
O=C(NC1CCN(c2ncnc3c2nc(-c2ccccc2Cl)n3-c2ccc(Cl)cc2)CC1)OC1COC1 | 92 nM | – | – | – | –
O/N=C(\c1ccc(F)cc1)C1CCN(c2ncnc3c2nc(-c2ccccc2Cl)n3-c2ccc(Cl)cc2)CC1 (stereo in doubt; 21) [listing 2 of 2 here] | 21 nM | > 1400 | – | – | –
CS(=O)(=O)CCC(=O)NC1CCN(c2ncnc3c2nc(-c2ccccc2Cl)n3-c2ccc(Cl)cc2)CC1 | 6000 nM | – | – | – | –
O=C(NC1CCN(c2ncnc3c2nc(-c2ccccc2Cl)n3-c2ccc(Cl)cc2)CC1)C1CCOCC1 | 440 nM | – | – | – | –
COCCOC(=O)NC1CCN(c2ncnc3c2nc(-c2ccccc2Cl)n3-c2ccc(Cl)cc2)CC1 | 6 nM | > 200 | 17 nM | > 5000 nM | permeability [3]: 13%
O=S(=O)(NC1CCN(c2ncnc3c2nc(-c2ccccc2Cl)n3-c2ccc(C(F)(F)F)nc2)CC1)c1ccc(F)c(F)c1 | 1 nM | > 600 | 10 nM | > 6000 nM | –
O=C(NC1CCN(c2ncnc3c2nc(-c2ccccc2Cl)n3-c2ccc(Cl)cc2)CC1)c1ccccn1 | 140 nM | – | – | – | –
Cc1cc(-n2c(-c3ccccc3Cl)nc3c(N4CCC(NS(=O)(=O)c5ccc(F)c(F)c5)CC4)ncnc32)no1 | 56 nM | > 20 | 420 nM | > 10000 nM | –
O=C(NC1CCN(c2ncnc3c2nc(-c2ccccc2Cl)n3-c2ccc(Cl)cc2)CC1)C1CCS(=O)(=O)CC1 | > 10000 nM | – | – | – | –
Nc1ccc(-n2c(-c3ccccc3Cl)nc3c(N4CCC(NS(=O)(=O)c5ccc(F)c(F)c5)CC4)ncnc32)cn1 | > 10000 nM | – | – | – | –
Clc1ccc(-n2c(-c3ccccc3Cl)nc3c(N4CCC(NCc5ccncc5)CC4)ncnc32)cc1 | 580 nM | – | – | – | –
Clc1ccc(-n2c(-c3ccccc3Cl)nc3c(N4CCC(c5nc6ccccc6[nH]5)CC4)ncnc32)cc1 | 12 nM | 18 | – | 830 nM | –
CC(C(=O)NC1CCN(c2ncnc3c2nc(-c2ccccc2Cl)n3-c2ccc(Cl)cc2)CC1)c1ccccc1 (stereo not drawn) | 2 nM | 50 | 3 nM | 150 nM | permeability [3]: < 0.1%
O=C(CN1CCCCC1)NC1CCN(c2ncnc3c2nc(-c2ccccc2Cl)n3-c2ccc(Cl)cc2)CC1 | 220 nM | – | – | – | –
O=C(NC1CCN(c2ncnc3c2nc(-c2ccccc2Cl)n3-c2ccc(Cl)cc2)CC1)OCC1COC1 | 77 nM | – | – | – | –
O/N=C(\c1ccc(F)cc1)C1CCN(c2ncnc3c2nc(-c2ccccc2Cl)n3-c2ccc(Cl)cc2)CC1 (stereo in doubt; 20) | 20 nM | > 2000 | – | – | –
O=C(NC1CCN(c2ncnc3c2nc(-c2ccccc2Cl)n3-c2ccc(Cl)cc2)CC1)c1ccc(F)cc1F | 1.2 nM | > 3500 | 2 nM | > 7000 nM | permeability [3]: < 0.1%
